Measured values taken from patent US12060368B2, “Selenophenochromene hydroxamic acids, preparation and use as angiogenesis inhibitors” (Latvian Institute of Organic Synthesis, priority 2018, dated 2024).
Structures can show the parent of a compound that is named as a salt.

Experiments:
[1] = target: T1, MMP 1 (Homo sapiens, UniProt P03956); assay: MMP Inhibitor Fluorimetric Profiling kit, MMP 1; assay type: biochemical; details: for IC50: read-out: MMP 1 inhibition IC50; for inhibition at 20 µM: test compound 20 μM
T1 construct: recombinant human MMP-1-10, 12, 13 and 14 catalytic domains; purchased Biornol, USA
T1 sequence (P03956 98-276 limits assumed): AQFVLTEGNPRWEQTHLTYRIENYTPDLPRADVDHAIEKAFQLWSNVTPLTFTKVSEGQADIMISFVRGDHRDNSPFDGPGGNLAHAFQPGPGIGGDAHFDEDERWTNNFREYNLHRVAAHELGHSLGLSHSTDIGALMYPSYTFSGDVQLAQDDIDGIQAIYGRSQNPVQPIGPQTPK
Description: (§1) Inhibition of matrix metalloproteinase enzymes by synthesized selenopheno[3,2-h]chromenes I-1-I-4 was detected on MMP Inhibitor Fluorimetric Profiling kit using NNGH (N-isobutyl-N-4-methoxyphenylsulfonyl)glycyl-hydroxamic acid) as a standard.
(§2) MMP assay: Inhibitors of matrix metalloproteinase enzymes were detected with the use of MMP Inhibitor Fluorimetric Profiling kit (Biornol, USA) accordingly to manufacturer's instructions. MMP activity assays were performed in 96-well plates using the recombinant human MMP-1-10, 12, 13 and 14 catalytic domains and OmniMMP™ fluorogenic substrate SEQ ID No 1: Mca-Pro-Leu-Gly-Leu-Dpa-Ala-Arg-NH2. The test compounds (20 μM) were dissolved in DMSO. The compound NNGH (N-isobutyl-N-(4-methoxyphenylsulfonyl)-glycylhydroxamic acid) was used as a prototypic control inhibitor. The rate of substrate hydrolysis was determined by fluorescence intensity measuring for 10 minutes at 37° C. temperature using a fluorescence plate reader (Tecan infinite M1000, Austria) with excitation at 328 nm and emission at 420 nm. Data analysis was performed using program Graph Pad Prism® 3.0.

[2] = target: T2, MMP 2 (Homo sapiens, UniProt P08253); assay: MMP Inhibitor Fluorimetric Profiling kit, MMP 2; assay type: biochemical; details: for IC50: read-out: MMP 2 inhibition IC50; for inhibition at 20 µM: test compound 20 μM
T2 construct: recombinant human MMP-1-10, 12, 13 and 14 catalytic domains; purchased Biornol, USA
Description: as §1, §2

[3] = target: T3, MMP 3 (Homo sapiens, UniProt P08254); assay: MMP Inhibitor Fluorimetric Profiling kit, MMP 3; assay type: biochemical; details: for IC50: ne = no effect, read-out: MMP 3 inhibition IC50; for inhibition at 20 µM: test compound 20 μM
T3 construct: recombinant human MMP-1-10, 12, 13 and 14 catalytic domains; purchased Biornol, USA
Description: as §1, §2

[4] = target: T4, MMP 7 (Homo sapiens, UniProt P09237); assay: MMP Inhibitor Fluorimetric Profiling kit, MMP 7; assay type: biochemical; details: for inhibition at 20 µM: test compound 20 μM
T4 construct: recombinant human MMP-1-10, 12, 13 and 14 catalytic domains; purchased Biornol, USA
T4 sequence (P09237 95-267): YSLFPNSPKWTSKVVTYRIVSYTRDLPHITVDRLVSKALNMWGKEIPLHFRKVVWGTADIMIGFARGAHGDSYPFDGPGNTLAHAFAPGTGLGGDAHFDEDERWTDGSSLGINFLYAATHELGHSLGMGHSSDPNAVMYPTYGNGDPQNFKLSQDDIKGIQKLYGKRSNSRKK
Description: as §1, §2

[5] = target: T5, MMP 8 (Homo sapiens, UniProt P22894); assay: MMP Inhibitor Fluorimetric Profiling kit, MMP 8; assay type: biochemical; details: for IC50: read-out: MMP 8 inhibition IC50; for inhibition at 20 µM: test compound 20 μM
T5 construct: recombinant human MMP-1-10, 12, 13 and 14 catalytic domains; purchased Biornol, USA
Description: as §1, §2

[6] = target: T6, MMP 9 (Homo sapiens, UniProt P14780); assay: MMP Inhibitor Fluorimetric Profiling kit, MMP 9; assay type: biochemical; details: for IC50: read-out: MMP 9 inhibition IC50; for inhibition at 20 µM: test compound 20 μM
T6 construct: recombinant human MMP-1-10, 12, 13 and 14 catalytic domains; purchased Biornol, USA
Description: as §1, §2

[7] = target: T7, MMP 10 (stromelysin 2) (Homo sapiens, UniProt P09238); assay: MMP Inhibitor Fluorimetric Profiling kit, MMP 10; assay type: biochemical; details: for IC50: read-out: MMP 10 inhibition IC50; for inhibition at 20 µM: test compound 20 μM
T7 construct: recombinant human MMP-1-10, 12, 13 and 14 catalytic domains; purchased Biornol, USA
Description: as §1, §2

[8] = target: T8, MMP 12 (Homo sapiens, UniProt P39900); assay: MMP Inhibitor Fluorimetric Profiling kit, MMP 12; assay type: biochemical; details: for MMP 12 inhibition IC50: ne = no effect; for inhibition at 20 µM: test compound 20 μM
T8 construct: recombinant human MMP-1-10, 12, 13 and 14 catalytic domains; purchased Biornol, USA
Description: as §1, §2

[9] = target: T9, MMP 13 (Homo sapiens, UniProt P45452); assay: MMP Inhibitor Fluorimetric Profiling kit, MMP 13; assay type: biochemical; details: for IC50 / MMP 13 inhibition IC50: ne = no effect; for IC50: read-out: MMP 13 inhibition IC50; for inhibition at 20 µM: test compound 20 μM
T9 construct: recombinant human MMP-1-10, 12, 13 and 14 catalytic domains; purchased Biornol, USA
Description: as §1, §2

[10] = target: T10, MMP 14 (Homo sapiens, UniProt P50281); assay: MMP Inhibitor Fluorimetric Profiling kit, MMP 14; assay type: biochemical; details: for IC50: read-out: MMP 14 inhibition IC50; for inhibition at 20 µM: test compound 20 μM
T10 construct: recombinant human MMP-1-10, 12, 13 and 14 catalytic domains; purchased Biornol, USA
Description: as §1, §2

T8 sequence (P39900 106-263 limits assumed): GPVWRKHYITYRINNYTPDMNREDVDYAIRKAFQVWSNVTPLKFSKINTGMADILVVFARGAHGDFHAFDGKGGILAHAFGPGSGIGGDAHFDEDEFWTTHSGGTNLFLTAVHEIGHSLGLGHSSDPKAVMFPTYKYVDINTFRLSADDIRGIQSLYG
T5 sequence (P22894 100-262 limits assumed): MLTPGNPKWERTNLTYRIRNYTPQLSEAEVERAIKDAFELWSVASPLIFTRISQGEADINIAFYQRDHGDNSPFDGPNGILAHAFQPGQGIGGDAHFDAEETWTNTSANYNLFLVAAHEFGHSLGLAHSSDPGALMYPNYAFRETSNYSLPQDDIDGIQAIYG
T7 sequence (P09238 99-263 limits assumed): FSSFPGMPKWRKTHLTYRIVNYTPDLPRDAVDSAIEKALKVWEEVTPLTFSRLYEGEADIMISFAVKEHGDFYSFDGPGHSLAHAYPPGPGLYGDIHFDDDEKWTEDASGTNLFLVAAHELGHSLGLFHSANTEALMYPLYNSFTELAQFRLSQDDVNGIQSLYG
T2 sequence (P08253 110-446 limits assumed): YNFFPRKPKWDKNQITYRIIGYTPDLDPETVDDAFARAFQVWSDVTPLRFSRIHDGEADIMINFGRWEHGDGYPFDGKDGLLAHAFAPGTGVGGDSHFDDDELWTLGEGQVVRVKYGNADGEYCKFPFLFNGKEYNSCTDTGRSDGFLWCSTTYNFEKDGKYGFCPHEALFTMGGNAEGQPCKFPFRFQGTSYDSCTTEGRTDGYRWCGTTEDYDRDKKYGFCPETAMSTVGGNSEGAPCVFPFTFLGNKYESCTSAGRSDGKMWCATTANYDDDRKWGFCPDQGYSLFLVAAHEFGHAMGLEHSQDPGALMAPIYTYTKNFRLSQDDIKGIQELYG
T6 sequence (P14780 107-444 limits assumed): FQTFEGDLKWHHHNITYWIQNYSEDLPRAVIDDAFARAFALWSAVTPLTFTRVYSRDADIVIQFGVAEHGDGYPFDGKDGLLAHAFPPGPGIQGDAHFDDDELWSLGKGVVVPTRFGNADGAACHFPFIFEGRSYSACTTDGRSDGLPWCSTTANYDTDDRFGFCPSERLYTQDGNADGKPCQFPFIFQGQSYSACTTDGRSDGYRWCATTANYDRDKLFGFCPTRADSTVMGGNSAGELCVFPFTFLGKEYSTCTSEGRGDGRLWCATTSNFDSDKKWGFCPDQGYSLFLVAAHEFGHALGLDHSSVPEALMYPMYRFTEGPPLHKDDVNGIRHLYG
T3 sequence (P08254 100-272 limits assumed): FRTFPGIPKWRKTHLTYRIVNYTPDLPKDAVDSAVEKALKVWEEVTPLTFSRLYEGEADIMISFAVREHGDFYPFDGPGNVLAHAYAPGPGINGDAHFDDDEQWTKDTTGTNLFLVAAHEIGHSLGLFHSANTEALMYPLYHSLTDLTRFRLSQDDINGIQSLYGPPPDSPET

| Compound | IC50 ([1]; ne = no effect) | inhibition at 20 µM [1] | IC50 ([2]; ne = no effect) | inhibition at 20 µM [2] | IC50 [3] | inhibition at 20 µM [3] | MMP 7 inhibition IC50 ([4]; ne = no effect) | inhibition at 20 µM [4] | IC50 ([5]; ne = no effect) | inhibition at 20 µM [5] | IC50 ([6]; ne = no effect) | inhibition at 20 µM [6] | IC50 ([7]; ne = no effect) | inhibition at 20 µM [7] | MMP 12 inhibition IC50 [8] | inhibition at 20 µM [8] | IC50 [9] | inhibition at 20 µM [9] | IC50 ([10]; ne = no effect) | inhibition at 20 µM [10] | further results |
| --- | --- | --- | --- | --- | --- | --- | --- | --- | --- | --- | --- | --- | --- | --- | --- | --- | --- | --- | --- | --- | --- |
| O=C(NO)c1cc2ccc3c(Br)c(CN4CCCNCC4)[se]c3c2oc1=O [Compound I-4, 8-((1,4-Diazepan-1-yl)methyl)-7-bromo-N-hydroxy-2-oxo-2H-selenopheno[3,2-h]chromene-3-carboxamide hydrochloride] | 5.21 ± 0.62 µM | 99 ± 8% | 1.86 ± 0.21 µM | 99 ± 6% | > 20 µM | 34 ± 8% | ne | 16 ± 3% | 1.86 ± 0.22 µM | 100 ± 9% | 1.92 ± 0.31 µM | 99 ± 6% | 1.71 ± 0.18 µM | 99 ± 8% | ne | 7 ± 3% | 4.74 ± 0.95 µM | 95 ± 8% | 4.04 ± 0.97 µM | 99 ± 7% | – |
| CN1CCN(Cc2[se]c3c(ccc4cc(C(=O)NO)c(=O)oc43)c2Br)CC1 [Compound I-1, 7-Bromo-N-hydroxy-8-((4-methylpiperazin-1-yl)methyl)-2-oxo-2H-selenopheno[3,2-h]chromene-3-carboxamide hydrochloride] | > 20 µM | 29 ± 2% | 20 µM | 51 ± 2% | > 20 µM | 34 ± 2% | – | 28 ± 2% | 20 µM | 56 ± 2% | > 20 µM | 35 ± 5% | 1.92 µM | ≤ 97% | ne | 0% | – | 0% | 18 ± 2 µM | 58 ± 2% | IC50 ([4]; ne = no effect, read-out: MMP 7 inhibition IC50): > 20 µM; MMP 13 inhibition IC50 [9]: ne |
| O=C(NO)c1cc2ccc3c(Br)c(CCN4CCNCC4)[se]c3c2oc1=O [Compound I-3, 7-Bromo-N-hydroxy-2-oxo-8-(2-(piperazin-1-yl)ethyl)-2H-selenopheno[3,2-h]chromene-3-carboxamide hydrochloride] | 6.66 ± 0.85 µM | 94 ± 2% | 1.13 ± 0.08 µM | 100 ± 1% | > 20 µM | 35 ± 5% | ne | 20 ± 3% | 1.61 ± 0.14 µM | 100 ± 1% | 1.06 ± 0.07 µM | 99 ± 1% | 0.96 µM | 100 ± 1% | ne | 0% | 4.95 ± 1.05 µM | 97 ± 4% | 3.88 ± 0.99 µM | 99 ± 4% | – |
| COc1ccc(S(=O)(=O)N(CC(=O)NO)CC(C)C)cc1 [NNGH, N-isobutyl-N-(4-methoxyphenylsulfonyl)-glycylhydroxamic acid, reference compound] | – | – | – | – | – | – | – | – | – | – | – | – | – | – | – | – | – | – | – | – | MMP 1 inhibition ([1]; control inhibitor 1.3 μM): 100%; MMP 2 inhibition ([2]; control inhibitor 1.3 μM): 100%; MMP 3 inhibition ([3]; control inhibitor 1.3 μM): 100%; MMP 7 inhibition ([4]; control inhibitor 1.3 μM): 7.2%; MMP 8 inhibition ([5]; control inhibitor 1.3 μM): 100%; MMP 9 inhibition ([6]; control inhibitor 1.3 μM): 100%; MMP 10 inhibition ([7]; control inhibitor 1.3 μM): 100%; MMP 12 inhibition ([8]; control inhibitor 1.3 μM): 100%; MMP 13 inhibition ([9]; control inhibitor 1.3 μM): 100%; MMP 14 inhibition ([10]; control inhibitor 1.3 μM): 100% |
| CN1CCN(Cc2[se]c3c(ccc4cc(C(=O)NO)c(=O)oc43)c2Br)CC1 (as salt: hydrochloride) [Compound I-1, 7-Bromo-N-hydroxy-8-((4-methylpiperazin-1-yl)methyl)-2-oxo-2H-selenopheno[3,2-h]chromene-3-carboxamide hydrochloride] | – | – | – | – | – | – | – | – | – | – | – | – | – | – | – | – | – | – | – | – | melting point: > 200 °C |
| O=C(NO)c1cc2ccc3c(Br)c(CCN4CCNCC4)[se]c3c2oc1=O (as salt: hydrochloride) [Compound I-3, 7-Bromo-N-hydroxy-2-oxo-8-(2-(piperazin-1-yl)ethyl)-2H-selenopheno[3,2-h]chromene-3-carboxamide hydrochloride] | – | – | – | – | – | – | – | – | – | – | – | – | – | – | – | – | – | – | – | – | melting point: > 200 °C |
| O=C(NO)c1cc2ccc3c(Br)c(CN4CCNCC4)[se]c3c2oc1=O [Compound I-2, 7-Bromo-N-hydroxy-2-oxo-8-(piperazin-1-ylmethyl)-2H-selenopheno[3,2-h]chromene-3-carboxamide hydrochloride] | 5.93 ± 0.54 µM | 94 ± 1% | 1.57 ± 0.18 µM | 98 ± 1% | > 20 µM | 31 ± 7% | ne | 20 ± 1% | 1.64 ± 0.25 µM | 100 ± 1% | 1.48 ± 0.11 µM | 100 ± 1% | 1.37 ± 0.85 µM | 99% | ne | 5 ± 1% | 6.27 ± 0.65 µM | 98 ± 1% | 4.35 ± 1.02 µM | 98 ± 2% | MMP 1 inhibition IC50 ([1]; ne = no effect): 1.37+6.27 μM; MMP 2 inhibition IC50 ([2]; ne = no effect): 1.37+6.27 μM; MMP 8 inhibition IC50 ([5]; ne = no effect): 1.37+6.27 μM; MMP 9 inhibition IC50 ([6]; ne = no effect): 1.37+6.27 μM; MMP 10 inhibition IC50 ([7]; ne = no effect): 1.37+6.27 μM; MMP 13 inhibition IC50 [9]: 1.37+6.27 μM; MMP 14 inhibition IC50 ([10]; ne = no effect): 1.37+6.27 μM |
| O=C(NO)c1cc2ccc3c(Br)c(CN4CCNCC4)[se]c3c2oc1=O (as salt: hydrochloride) [Compound I-2, 7-Bromo-N-hydroxy-2-oxo-8-(piperazin-1-ylmethyl)-2H-selenopheno[3,2-h]chromene-3-carboxamide hydrochloride] | – | – | – | – | – | – | – | – | – | – | – | – | – | – | – | – | – | – | – | – | melting point: > 200 °C |
